Activation data for 24 molecules are collected here from patent publication US11807650B2, “NMDA receptor modulators and uses thereof” (Novartis AG, priority 2016, dated 2023).

T1 sequence (O15399 28-1336, other chains not shown): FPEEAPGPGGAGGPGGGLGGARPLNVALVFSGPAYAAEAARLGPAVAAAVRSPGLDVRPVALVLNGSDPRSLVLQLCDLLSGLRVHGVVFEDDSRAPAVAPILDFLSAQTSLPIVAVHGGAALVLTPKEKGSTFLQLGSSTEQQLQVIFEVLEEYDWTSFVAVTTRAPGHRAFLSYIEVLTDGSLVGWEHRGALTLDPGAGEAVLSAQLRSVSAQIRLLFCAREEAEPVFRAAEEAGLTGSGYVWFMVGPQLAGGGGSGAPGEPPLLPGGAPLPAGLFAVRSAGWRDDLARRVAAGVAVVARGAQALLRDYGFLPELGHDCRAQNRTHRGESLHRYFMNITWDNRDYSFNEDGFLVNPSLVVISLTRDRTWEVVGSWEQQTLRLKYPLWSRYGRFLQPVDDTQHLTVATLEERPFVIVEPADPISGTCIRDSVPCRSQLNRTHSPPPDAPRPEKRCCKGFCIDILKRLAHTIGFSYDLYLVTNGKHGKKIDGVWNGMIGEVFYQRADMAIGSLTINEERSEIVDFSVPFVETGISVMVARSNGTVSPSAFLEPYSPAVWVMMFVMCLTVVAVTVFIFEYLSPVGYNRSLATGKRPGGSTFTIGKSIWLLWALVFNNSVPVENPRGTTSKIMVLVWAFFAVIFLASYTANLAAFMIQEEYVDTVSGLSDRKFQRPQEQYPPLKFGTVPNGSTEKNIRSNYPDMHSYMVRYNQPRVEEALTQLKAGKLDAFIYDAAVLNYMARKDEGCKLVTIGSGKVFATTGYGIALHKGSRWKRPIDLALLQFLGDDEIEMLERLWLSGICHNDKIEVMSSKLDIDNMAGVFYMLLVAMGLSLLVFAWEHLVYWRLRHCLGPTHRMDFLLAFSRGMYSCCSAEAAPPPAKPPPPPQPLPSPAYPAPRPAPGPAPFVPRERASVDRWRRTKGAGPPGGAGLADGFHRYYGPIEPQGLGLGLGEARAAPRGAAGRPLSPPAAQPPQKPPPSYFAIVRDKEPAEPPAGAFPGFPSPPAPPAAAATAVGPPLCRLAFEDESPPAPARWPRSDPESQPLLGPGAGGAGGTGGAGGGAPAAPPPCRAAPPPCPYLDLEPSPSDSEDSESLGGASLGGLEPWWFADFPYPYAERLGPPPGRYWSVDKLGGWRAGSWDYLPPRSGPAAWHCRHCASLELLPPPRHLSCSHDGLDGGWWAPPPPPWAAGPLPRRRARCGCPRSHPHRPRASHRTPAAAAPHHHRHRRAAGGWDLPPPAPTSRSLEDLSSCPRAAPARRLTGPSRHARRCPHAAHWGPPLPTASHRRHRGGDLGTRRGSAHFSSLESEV

This assay addresses T1, human GRIN1 (transcript variant NR1-3) and GRIN2D expressed in Xenopus oocytes (Homo sapiens, UniProt O15399).
T1 construct: GenScript (GRIN2D synthesis) SC115601; host or cells: Xenopus oocytes injected with cRNA (1 GluN1 : 2 GluN2)
The experiment in a line: NR2D oocyte potentiation assay (two-electrode voltage clamp). To be noted: 10 uM test compound; glutamate and glycine 10 μM each; holding potential −40 mV. It is filed as cell-based. The protocol:
NR2D Oocyte Potentiation Assay. Xenopus oocytes (Xenopus 1, Dexter, Mich.) were initially separated from the lobes of an ovary using surgical forceps; they were then defolliculated by constant agitation at room temperature in OR-2 buffer (82.5 mM NaCl; 2.5 mM KCl; 1 mM MgCl2; 5 mM HEPES; pH 7.4) containing 2 mg/ml collagenase Type 1 (Fisher Scientific, USA) for 1.5-2 hours. The cells were then gently aspirated with a Pasteur pipette to remove the follicular tissue; this was followed by washing three times with OR-2 to remove all traces of collagenase. The oocytes were then washed in ND-96 (96 mM NaCl, 2 mM KCl, 1.8 mM CaCl2, 1 mM MgCl2, 5 mM HEPES, 50 ng/L gentamycin, 100 units/ml penicillin and 100 μg/ml streptomycin; pH 7.6) three times and this was followed by incubation in ND-96 at room temperature with mild agitation for 15 minutes; subsequently they were stored for at least 2 hours at 16° C. before sorting and selection for injection. Oocytes selected for injection were incubated overnight in ND-96 at 16° C.
The human GRIN1 (transcript variant NR1-3 (Origene, SKU #: SC115601, Rockville, Md.) and GRIN2D (NCBI locus NM_000836, sequence optimized and synthesized by GenScript) were linearized and transcribed using the mMessage mMachine kit (Life Technologies) and promoters SP6 (for GluN1) and T7 (for GluN2D). cRNAs were mixed together at a ratio of 1 GluN1:2 GluN2. Each oocyte was injected with 50 nL of cRNA and stored in ND96 (96 mM NaCl, 2 mM KCl, 1.8 mM CaCl2, 1 mM MgCl2, 5 mM HEPES, 50 ng/L gentamycin, 100 units/ml penicillin and 100 μg/ml streptomycin; pH 7.6) at 16° C. for 72 h prior to recording.
Currents were recorded using a two-electrode voltage-clamp amplifier (Oocyte Clamp OC-725C; Warner Instrument Corp, Hamden, Conn.), and digitized using Digidata 1550A and pClamp (v. 10) software (Molecular Devices, Sunnyvale, Calif.). Electrodes were filled with 3 M KCl and had resistances that ranged from 0.2-1 MO. All measurements were made at a holding potential of −40 mV. Cells were continuously perfused with oocyte recording solution containing 90 mM NaCl, 1 mM KCl, 0.5 mM BaCl2, and 10 mM HEPES (Ph 7.4). Glutamate and Glycine (co-agonists) were applied at respective concentrations of 10 μM each. Co-agonists were applied until a plateau was reached, and test compounds were then added in the continued presence of co-agonists until a new plateau was reached. After the addition of the last test compound concentration, the oocyte was washed with oocyte recording buffer. Fraction of current remaining was calculated as [(current in presence of test compound−background current)/(co-agonist current−background current)] and IC50 values were computed using Prism 6.0 (Graphpad).
As for `CC1(c2ccc(-c3nc4n(c(=O)c3C#N)CCCS4)cn2)CC1` [Example 109, 8-[6-(1-methyl-cyclopropyl)pyridin-3-yl]-6-oxo-2H,3H, 4H,6H-pyrimido[2,1-b] [1,3]thiazine-7-carbonitrile], the activation at 10 µM lay within 500 to 1000%. For `CC(C)(O)c1ccc(-c2nc3n(c(=O)c2C#N)CCCS3)cn1` [Example 83, 8-(6-(2-hydroxypropan-2-yl)pyridin-3-yl)-6-oxo-3,4-dihydro-2H,6H-pyrimido[2,1-b][1,3]thiazine-7-carbonitrile] the value was 10 to 100%. The result for `COC(C)(C)c1ccc(-c2nc3n(c(=O)c2C#N)CC(C)CS3)cn1` (stereo not drawn) [Example 119, 8-(6-(2-methoxypropan-2-yl)pyridin-3-yl)-3-methyl-6-oxo-3,4-dihydro-2H,6H-pyrimido[2,1-b][1,3]thiazine-7-carbonitrile] reads 10 to 100%.

As for `CC1CSc2nc(-c3ccc(C4(C)CC4(F)F)nc3)c(C#N)c(=O)n2C1` (stereo not drawn) [Example 111, 8-[6-(2,2-difluoro-1-methyl-cyclopropyl)pyridin-3-yl]-3-methyl-6-oxo-2H,3H,4H,6H-pyimido[2,1-b] [1,3]thiazine-7-carbonitrile], the activation at 10 µM is 500 to 1000%. For `CC(C)(C)c1ccc(-c2nc3n(c(=O)c2C#N)CCCC3)cc1` [Example 23, 2-(4-(tert-butyl)phenyl)-4-oxo-6,7,8,9-tetrahydro-4H-pyrido[1,2-a]pyrimidine-3-carbonitrile] the value was 10 to 100%; for `CC(C)(C)c1ccc(-c2nc3n(c(=O)c2C#N)CCS3)cn1` [Example 1, 7-(6-(tert-butyl)pyridin-3-yl)-5-oxo-2,3-dihydro-5H-thiazolo[3,2-a]pyrimidine-6-carbonitrile], 100 to 500%; for `CC(C)(C)OCC1CSc2nc(-c3cnc(C(C)(C)C)c(F)c3)c(C#N)c(=O)n2C1` (stereo not drawn) [Example 173, 3-(tert-butoxymethyl)-8-(6-(tert-butyl)-5-fluoropyridin-3-yl)-6-oxo-3,4-dihydro-2H,6H-pyrimido[2,1-b][1,3]thiazine-7-carbonitrile], 10 to 100%. The result for `CC(C)(C#N)c1ccc(-c2nc3n(c(=O)c2C#N)CCCS3)cn1` [Example 78, 8-(6-(2-cyanopropan-2-yl)pyridin-3-yl)-6-oxo-3,4-dihydro-2H,6H-pyrimido[2,1-b][1,3]thiazine-7-carbonitrile] reads 10 to 100%; that for `CC1CCn2c(nc(-c3ccc(C(C)(C)C)nc3)c(C#N)c2=O)S1` (stereo not drawn) [Example 93, 8-(6-(tert-butyl)pyridin-3-yl)-2-methyl-6-oxo-3,4-dihydro-2H,6H-pyrimido[2,1-b][1,3]thiazine-7-carbonitrile], 500 to 1000%. `CC(C)(C)c1ccc(-c2nc3n(c(=O)c2C#N)C[C@H](CO)CS3)cn1` [Example 130, (R)-8-(6-(tert-butyl)pyridin-3-yl)-3-(hydroxymethyl)-6-oxo-3,4-dihydro-2H,6H-pyrimido[2,1-b][1,3]thiazine-7-carbonitrile]: the activation at 10 µM is 100 to 500%. Take `CC(C)(C)c1ccc(-c2nc3n(c(=O)c2C#N)C[C@@H](CO)CS3)cn1` [Example 129, (S)-8-(6-(tert-butyl)pyridin-3-yl)-3-(hydroxymethyl)-6-oxo-3,4-dihydro-2H,6H-pyrimido[2,1-b][1,3]thiazine-7-carbonitrile]: the activation at 10 µM is over 1000%. For `CC1(c2ccc(-c3nc4n(c(=O)c3C#N)CCCS4)cn2)CC1(F)F` (stereo not drawn) [Example 110, 8-(6-(2,2-difluoro-1-methylcyclopropyl)pyridin-3-yl)-6-oxo-3,4-dihydro-2H,6H-pyrimido[2,1-b][1,3]thiazine-7-carbonitrile] the value was 500 to 1000%. The result for `CC(C)(C)c1ncc(-c2nc3n(c(=N)c2C#N)CCCS3)cc1F` [Example 40, 8-(6-(tert-butyl)-5-fluoropyridin-3-yl)-6-imino-3,4-dihydro-2H,6H-pyrimido[2,1-b][1,3]thiazine-7-carbonitrile] reads over 1000%. The result for `CC(C)(C)c1ncc(-c2nc3n(c(=O)c2C#N)CC(CN2CCCC2)CS3)cc1F` (stereo not drawn) [Example 159, 8-(6-(tert-butyl)-5-fluoropyridin-3-yl)-6-oxo-3-(pyrrolidin-1-ylmethyl)-3,4-dihydro-2H,6H-pyrimido[2,1-b][1,3]thiazine-7-carbonitrile] reads 10 to 100%; that for `CC1(c2ncc(-c3cc4n(c(=O)c3C#N)CCCS4)cc2F)CC1` [Example 136, 8-[5-fluoro-6-(1-methyl-cyclopropyl)pyridin-3-yl]-6-oxo-2H,3H,4H,6H-pyrido [2,1-b][1,3] thiazine-7-carbonitrile], over 1000%.

Turning to `CC(C)(C)c1ncc(-c2nc3n(c(=O)c2C#N)CCCS3)cc1F` [Example 75, 8-(6-(tert-butyl)-5-fluoropyridin-3-yl)-6-oxo-3,4-dihydro-2H,6H-pyrimido[2,1-b][1,3]thiazine-7-carbonitrile], the activation at 10 µM was over 1000%. The result for `CC(C)(C)c1ccc(-c2nc3n(c(=O)c2C#N)CC(CO)CS3)cn1` (stereo not drawn) [Example 87, 8-(6-(tert-butyl)pyridin-3-yl)-3-(hydroxymethyl)-6-oxo-3,4-dihydro-2H,6H-pyrimido[2,1-b][1,3]thiazine-7-carbonitrile] reads 500 to 1000%; that for `N#Cc1c(-c2ccnc(C3CC3)n2)nc2n(c1=O)CCCS2` [Example 180, 8-(2-cyclopropylpyrimidin-4-yl)-6-oxo-2H,3H,4H,6H-pyrimido[2,1-b][1,3]thiazine-7-carbonitrile], under 10%; that for `CN1CSc2nc(-c3ccc(C(C)(C)C)nc3)c(C#N)c(=O)n2C1` [Example 8, 8-(6-(tert-butyl)pyridin-3-yl)-3-methyl-6-oxo-3,4-dihydro-2H,6H-pyrimido[2,1-b][1,3,5]thiadiazine-7-carbonitrile], 10 to 100%. For `COCC1CSc2nc(-c3ccc(C(C)(C)C)nc3)c(C#N)c(=O)n2C1` (stereo not drawn) [Example 123, 8-(6-(tert-butyl)pyridin-3-yl)-3-(methoxymethyl)-6-oxo-3,4-dihydro-2H,6H-pyrimido[2,1-b][1,3]thiazine-7-carbonitrile] the value was 500 to 1000%. The result for `CC(C)(C)c1ncc(-c2nc3n(c(=O)c2C#N)CC(CF)CS3)cn1` (stereo not drawn) [Example 91, 8-(2-(tert-butyl)pyrimidin-5-yl)-3-(fluoromethyl)-6-oxo-3,4-dihydro-2H,6H-pyrimido[2,1-b][1,3]thiazine-7-carbonitrile] reads 500 to 1000%; that for `CN(C)C(=O)C1CSc2nc(-c3cnc(C(C)(C)C)c(F)c3)c(C#N)c(=O)n2C1` (stereo not drawn) [Example 161, 8-(6-(tert-butyl)-5-fluoropyridin-3-yl)-7-cyano-N,N-dimethyl-6-oxo-3,4-dihydro-2H,6H-pyrimido[2,1-b][1,3]thiazine-3-carboxamide], 100 to 500%; that for `CC1CSc2nc(-c3cnc(C(C)(C)C)c(F)c3)c(C#N)c(=O)n2C1` (stereo not drawn) [Example 76, 8-(6-(tert-butyl)-5-fluoropyridin-3-yl)-3-methyl-6-oxo-3,4-dihydro-2H,6H-pyrimido[2,1-b][1,3]thiazine-7-carbonitrile], over 1000%. Consider `CC(C)(C)c1ncc(-c2cc3n(c(=O)c2C#N)CCCS3)cc1F` [Example 102, 8-(6-(tert-butyl)-5-fluoropyridin-3-yl)-6-oxo-3,4-dihydro-2H,6H-pyrido[2,1-b][1,3]thiazine-7-carbonitrile], for which the activation at 10 µM is over 1000%.
